Source: patent EP4745135A1 (Gluetacs Therapeutics (Shanghai) Co., Ltd., priority 2023, dated 2025)

Assays:
[1] = tested on: Human multiple myeloma cell (MM.1S); assay: Tumor cell proliferation inhibition (CellTiter-Meiluncell luminescent cell viability assay); details: for inhibition at 0.01 µM / IC50 / inhibition at 0.5 µM: Homo sapiens, MM1.S, 96 h; for inhibition at 0.01 µM: read-out: Inhibition Rate at 10 nM (%); for Inhibition Rate at 500 nM (%): MM.1S, 96 hours; for IC50: read-out: Inhibitory activity (IC50, nM) on tumor cell proliferation, MM.1S; for inhibition at 0.5 µM: read-out: Inhibition Rate at 500 nM (%)
[2] = target: T1, IKZF3 (Homo sapiens, UniProt Q96SW2+Q9UKT9); assay: Western blot, degradation of substrate protein in hPBMCs; type: cell-based
T1 construct: effects of the compounds of the present disclosure on the expression of target proteins in cells; endogenous in cells; host or cells: human PBMCs (Milecell Biotechnologies)

[3] = target: T2, CK1α (Homo sapiens, UniProt P48729+Q96SW2); assay: as above; type: cell-based
T2 construct: effects of the compounds of the present disclosure on the expression of target proteins in cells; endogenous in cells; host or cells: human PBMCs (Milecell Biotechnologies)

[4] = target: T3, IKZF1 (Homo sapiens, UniProt Q13422+Q96SW2); assay: as above; type: cell-based
T3 construct: effects of the compounds of the present disclosure on the expression of target proteins in cells; endogenous in cells; host or cells: human PBMCs (Milecell Biotechnologies)

[5] = target: T4, IKZF2 (Homo sapiens, UniProt Q96SW2+Q9UKS7); assay: as above; type: cell-based
T4 construct: effects of the compounds of the present disclosure on the expression of target proteins in cells; endogenous in cells; host or cells: human PBMCs (Milecell Biotechnologies)

[6] = target: T5, WEE1 (Homo sapiens, UniProt P30291+Q96SW2); assay: as above; type: cell-based
T5 construct: effects of the compounds of the present disclosure on the expression of target proteins in cells; endogenous in cells; host or cells: human PBMCs (Milecell Biotechnologies)

[7] = target: T6, human Cereblon WT GST-tagged protein (Homo sapiens, UniProt Q96SW2); assay: CRBN-binding affinity, HTRF (CEREBLON BINDING kit); details: for inhibition at 0.5 µM: read-out: Inhibition Rate at 0.5 µM (%); for inhibition at 2 µM: read-out: Inhibition Rate at 2 µM (%); for IC50: CRBN binding, HTRF, 3 hours at room temperature, read-out: HTRF IC50
T6 construct: purchased CISBIO 64BDCRBNPEH

[8] = tested on: GSPT1; assay: Western blot, degradation of substrate protein in hPBMCs; type: cell-based, Human
[9] = Western blot, 24 hours of compound treatment, compounds tested at 50 nM and 500 nM (concentration for the table not stated)
[10] = 24 hours treatment, compounds at 50 nM and 500 nM (concentration behind the class not stated)

T5 sequence (P30291 whole entry): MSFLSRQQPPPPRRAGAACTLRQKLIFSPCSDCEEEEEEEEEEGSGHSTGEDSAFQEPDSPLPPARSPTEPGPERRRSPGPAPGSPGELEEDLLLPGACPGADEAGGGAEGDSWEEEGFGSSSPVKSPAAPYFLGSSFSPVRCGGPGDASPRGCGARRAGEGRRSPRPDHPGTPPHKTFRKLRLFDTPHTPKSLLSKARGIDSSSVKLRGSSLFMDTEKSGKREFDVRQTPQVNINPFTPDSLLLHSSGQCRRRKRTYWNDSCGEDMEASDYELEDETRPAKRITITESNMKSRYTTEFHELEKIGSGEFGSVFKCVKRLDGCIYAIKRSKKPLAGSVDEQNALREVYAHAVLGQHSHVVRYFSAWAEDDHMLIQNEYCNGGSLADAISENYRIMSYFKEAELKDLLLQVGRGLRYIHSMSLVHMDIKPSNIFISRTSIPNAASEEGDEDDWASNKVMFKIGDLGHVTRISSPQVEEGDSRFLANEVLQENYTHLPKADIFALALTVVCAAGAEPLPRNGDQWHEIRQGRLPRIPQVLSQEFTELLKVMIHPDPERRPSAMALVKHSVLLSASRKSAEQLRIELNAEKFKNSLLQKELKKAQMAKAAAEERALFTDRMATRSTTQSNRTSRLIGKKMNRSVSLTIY
T5 sequence (Q96SW2 whole entry): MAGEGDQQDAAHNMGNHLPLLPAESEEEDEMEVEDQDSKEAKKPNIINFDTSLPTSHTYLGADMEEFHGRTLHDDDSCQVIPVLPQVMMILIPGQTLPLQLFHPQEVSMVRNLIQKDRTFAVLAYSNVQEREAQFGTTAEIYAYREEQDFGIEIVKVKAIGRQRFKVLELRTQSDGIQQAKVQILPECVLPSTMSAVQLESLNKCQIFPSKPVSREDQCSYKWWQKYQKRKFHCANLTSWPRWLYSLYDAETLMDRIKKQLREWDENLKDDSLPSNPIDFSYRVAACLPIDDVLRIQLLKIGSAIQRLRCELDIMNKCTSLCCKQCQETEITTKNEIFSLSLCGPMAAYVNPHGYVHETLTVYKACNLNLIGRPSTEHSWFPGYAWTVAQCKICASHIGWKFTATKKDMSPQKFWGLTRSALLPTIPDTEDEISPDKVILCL
T5 sequence (Q16531 whole entry partner): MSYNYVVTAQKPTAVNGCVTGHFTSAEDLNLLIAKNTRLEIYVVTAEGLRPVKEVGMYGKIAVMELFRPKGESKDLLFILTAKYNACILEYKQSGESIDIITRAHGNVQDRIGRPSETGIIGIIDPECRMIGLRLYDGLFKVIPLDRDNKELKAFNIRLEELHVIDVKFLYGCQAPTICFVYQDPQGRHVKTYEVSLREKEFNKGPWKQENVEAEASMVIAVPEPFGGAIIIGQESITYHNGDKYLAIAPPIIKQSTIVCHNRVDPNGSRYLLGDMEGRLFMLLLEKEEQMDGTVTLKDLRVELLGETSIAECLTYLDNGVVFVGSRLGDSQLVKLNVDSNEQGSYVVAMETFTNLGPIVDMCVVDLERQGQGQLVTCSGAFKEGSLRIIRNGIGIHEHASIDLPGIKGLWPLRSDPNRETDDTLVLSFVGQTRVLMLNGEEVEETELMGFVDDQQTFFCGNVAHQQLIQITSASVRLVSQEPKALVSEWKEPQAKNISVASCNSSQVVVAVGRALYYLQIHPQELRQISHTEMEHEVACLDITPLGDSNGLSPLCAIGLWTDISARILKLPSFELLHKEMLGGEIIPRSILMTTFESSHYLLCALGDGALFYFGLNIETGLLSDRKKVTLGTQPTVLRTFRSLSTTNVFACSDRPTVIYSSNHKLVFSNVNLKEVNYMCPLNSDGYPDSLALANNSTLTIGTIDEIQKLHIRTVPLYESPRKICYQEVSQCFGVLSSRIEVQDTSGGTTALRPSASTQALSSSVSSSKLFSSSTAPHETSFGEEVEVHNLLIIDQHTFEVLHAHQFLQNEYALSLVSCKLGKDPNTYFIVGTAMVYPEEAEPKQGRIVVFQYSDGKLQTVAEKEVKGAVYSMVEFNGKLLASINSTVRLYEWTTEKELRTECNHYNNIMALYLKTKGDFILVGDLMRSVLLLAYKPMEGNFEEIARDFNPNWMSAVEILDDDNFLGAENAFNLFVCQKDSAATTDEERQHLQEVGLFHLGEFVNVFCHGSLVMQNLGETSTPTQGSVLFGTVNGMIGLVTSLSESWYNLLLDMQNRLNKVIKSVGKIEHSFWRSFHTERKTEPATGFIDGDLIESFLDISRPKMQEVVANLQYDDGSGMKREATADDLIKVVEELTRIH
T6 sequence (Q96SW2 whole entry): as the sequence (Q96SW2 whole entry) above
T1 sequence (Q9UKT9 whole entry): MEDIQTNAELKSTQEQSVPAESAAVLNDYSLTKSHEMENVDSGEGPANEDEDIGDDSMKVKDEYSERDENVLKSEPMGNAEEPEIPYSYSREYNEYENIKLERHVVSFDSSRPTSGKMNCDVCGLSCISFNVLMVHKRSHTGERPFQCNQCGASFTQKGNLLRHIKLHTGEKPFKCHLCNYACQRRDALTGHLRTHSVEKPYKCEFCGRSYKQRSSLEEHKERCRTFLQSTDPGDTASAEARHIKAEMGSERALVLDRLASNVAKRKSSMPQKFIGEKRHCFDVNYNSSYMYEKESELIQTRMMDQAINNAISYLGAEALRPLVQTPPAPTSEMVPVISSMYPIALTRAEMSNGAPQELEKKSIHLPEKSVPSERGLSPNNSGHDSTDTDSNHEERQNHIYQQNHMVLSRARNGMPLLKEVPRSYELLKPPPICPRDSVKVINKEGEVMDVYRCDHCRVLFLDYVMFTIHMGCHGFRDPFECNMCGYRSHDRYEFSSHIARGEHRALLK
T1 sequence (Q96SW2 whole entry): as the sequence (Q96SW2 whole entry) above
T1 sequence (Q16531 whole entry partner): as the sequence (Q16531 whole entry partner) above
T2 sequence (P48729 whole entry): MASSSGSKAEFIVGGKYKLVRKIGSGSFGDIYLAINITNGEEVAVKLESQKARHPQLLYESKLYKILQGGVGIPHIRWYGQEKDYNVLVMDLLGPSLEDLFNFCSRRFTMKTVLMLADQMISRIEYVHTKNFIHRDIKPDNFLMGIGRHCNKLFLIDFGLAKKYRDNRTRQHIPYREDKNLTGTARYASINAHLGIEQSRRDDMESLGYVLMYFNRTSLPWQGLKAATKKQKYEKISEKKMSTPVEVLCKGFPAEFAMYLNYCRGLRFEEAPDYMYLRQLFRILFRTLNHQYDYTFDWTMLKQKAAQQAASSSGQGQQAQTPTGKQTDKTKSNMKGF
T2 sequence (Q96SW2 whole entry): as the sequence (Q96SW2 whole entry) above
T2 sequence (Q16531 whole entry partner): as the sequence (Q16531 whole entry partner) above
T3 sequence (Q13422 whole entry): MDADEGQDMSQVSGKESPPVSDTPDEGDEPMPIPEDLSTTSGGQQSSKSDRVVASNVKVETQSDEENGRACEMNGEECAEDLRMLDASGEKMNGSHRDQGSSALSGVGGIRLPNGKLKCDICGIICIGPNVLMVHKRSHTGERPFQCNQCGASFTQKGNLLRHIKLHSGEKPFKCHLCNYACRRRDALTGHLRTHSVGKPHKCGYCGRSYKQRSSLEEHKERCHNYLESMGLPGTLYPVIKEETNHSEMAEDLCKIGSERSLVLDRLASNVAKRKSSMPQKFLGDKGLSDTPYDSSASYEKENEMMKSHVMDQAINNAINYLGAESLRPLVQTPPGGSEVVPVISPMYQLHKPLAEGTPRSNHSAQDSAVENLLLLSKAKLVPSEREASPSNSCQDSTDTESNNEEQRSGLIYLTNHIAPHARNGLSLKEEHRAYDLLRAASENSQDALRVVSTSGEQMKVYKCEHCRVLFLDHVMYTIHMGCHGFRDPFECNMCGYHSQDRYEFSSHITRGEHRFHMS
T3 sequence (Q96SW2 whole entry): as the sequence (Q96SW2 whole entry) above
T3 sequence (Q16531 whole entry partner): as the sequence (Q16531 whole entry partner) above
T4 sequence (Q9UKS7 whole entry): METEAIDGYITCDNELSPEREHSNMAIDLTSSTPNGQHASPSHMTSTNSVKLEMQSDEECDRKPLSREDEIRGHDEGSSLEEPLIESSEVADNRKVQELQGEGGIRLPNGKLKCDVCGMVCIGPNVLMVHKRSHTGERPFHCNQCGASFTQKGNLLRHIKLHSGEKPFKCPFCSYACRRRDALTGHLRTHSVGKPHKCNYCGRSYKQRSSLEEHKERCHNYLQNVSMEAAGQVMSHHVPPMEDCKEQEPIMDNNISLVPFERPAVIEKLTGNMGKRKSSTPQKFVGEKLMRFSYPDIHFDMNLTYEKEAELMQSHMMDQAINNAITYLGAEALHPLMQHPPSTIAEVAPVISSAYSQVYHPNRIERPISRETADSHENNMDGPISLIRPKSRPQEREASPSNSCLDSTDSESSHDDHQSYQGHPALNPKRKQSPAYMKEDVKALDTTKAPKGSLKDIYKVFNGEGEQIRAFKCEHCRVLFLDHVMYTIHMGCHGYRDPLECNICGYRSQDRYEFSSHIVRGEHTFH
T4 sequence (Q96SW2 whole entry): as the sequence (Q96SW2 whole entry) above
T4 sequence (Q16531 whole entry partner): as the sequence (Q16531 whole entry partner) above

| inhibition at 0.5 µM [7] | inhibition at 2 µM [7] | IC50 [1] | IC50 [7] | Structure (SMILES) | inhibition at 0.01 µM [1] | Inhibition Rate at 500 nM (%) [1] | IKZF3 substrate protein remaining % [2, 9] | CK1α substrate protein remaining % [3, 9] | IKZF 1 substrate protein remaining % [4, 9] | IKZF2 substrate protein remaining % [5, 9] | Wee1 substrate protein remaining % [6, 9] | GSPT1 substrate protein remaining % [8, 9] | inhibition at 0.5 µM [1] | IKZF3 substrate protein remaining % [2, 10] | CK1α substrate protein remaining % [3, 10] | IKZF 1 substrate protein remaining % [4, 10] | IKZF2 substrate protein remaining % [5, 10] | Wee1 substrate protein remaining % [6, 10] | GSPT1 substrate protein remaining % [8, 10] |
| --- | --- | --- | --- | --- | --- | --- | --- | --- | --- | --- | --- | --- | --- | --- | --- | --- | --- | --- | --- |
| 30 to 40% | 60 to 80% |  |  | O=C1CCC(N2Cc3c(CN4C[C@H]5C[C@@H]4CN5c4cccc(Cl)c4Cl)cccc3C2=S)C(=O)N1 (stereo in doubt) [GT-08467, 3-(4-(((1R,4R)-5-(2,3-dichlorophenyl)-2,5-diazabicyclo[2.2.1]heptan-2-yl)methyl)-1-thioxoisoindolin-2-yl)piperidine-2,6-dione] | 10 to 20% | la7 | B (80%< substrate protein remaining %≤ 100%) | B (80%< substrate protein remaining %≤ 100%) | B (80%< substrate protein remaining %≤ 100%) | A (0% ≤ substrate protein remaining % ≤ 80%) | B (80%< substrate protein remaining %≤ 100%) | A (0% ≤ substrate protein remaining % ≤ 80%) |  |  |  |  |  |  |  |
|  |  | 10 to 50 nM | 100 to 500 nM | O=C1CCC(N2Cc3cc(CN4CCN(C(c5ccccc5)c5ccccn5)CC4)ccc3C2=S)C(=O)N1 (stereo not shown) [GT-05103, 3-(5-((4-(phenyl(pyridin-2-yl)methyl)piperazin-1-yl)methyl)-1-thioxoisoindolin-2-yl)piperidine-2,6-dione] |  |  | B (80%< substrate protein remaining %≤ 100%) | B (80%< substrate protein remaining %≤ 100%) | B (80%< substrate protein remaining %≤ 100%) | B (80%< substrate protein remaining %≤ 100%) | B (80%< substrate protein remaining %≤ 100%) | A (0% ≤ substrate protein remaining % ≤ 80%) |  |  |  |  |  |  |  |
|  |  | 50 to 100 nM | 100 to 500 nM | Cc1ccc(C2CCN(Cc3ccc4c(c3)CN(C3CCC(=O)NC3=O)C4=S)CC2)s1 (stereo not shown) [GT-05112, 3-(5-((4-(5-methylthiophen-2-yl)piperidin-1-yl)methyl)-1-thioxoisoindolin-2-yl)piperidine-2,6-dione] |  |  | A (0% ≤ substrate protein remaining % ≤ 80%) | B (80%< substrate protein remaining %≤ 100%) | A (0% ≤ substrate protein remaining % ≤ 80%) | B (80%< substrate protein remaining %≤ 100%) | B (80%< substrate protein remaining %≤ 100%) | A (0% ≤ substrate protein remaining % ≤ 80%) |  |  |  |  |  |  |  |
|  |  | 100 to 500 nM | 100 to 500 nM | Cc1cscc1C1CCN(Cc2ccc3c(c2)CN(C2CCC(=O)NC2=O)C3=S)CC1 (stereo not shown) [GT-05146, 3-(5-((4-(4-methylthiophen-3-yl)piperidin-1-yl)methyl)-1-thioxoisoindolin-2-yl)piperidine-2,6-dione] |  |  | B (80%< substrate protein remaining %≤ 100%) | B (80%< substrate protein remaining %≤ 100%) | A (0% ≤ substrate protein remaining % ≤ 80%) | B (80%< substrate protein remaining %≤ 100%) | A (0% ≤ substrate protein remaining % ≤ 80%) | A (0% ≤ substrate protein remaining % ≤ 80%) |  |  |  |  |  |  |  |
|  |  |  |  | O=C1CCC(N2Cc3c(CN4CCC(c5ccccc5F)CC4)cccc3C2=S)C(=O)N1 (stereo not shown) [GT-08595, 3-(4-((4-(2-fluorophenyl)piperidin-1-yl)methyl)-1-thioxoisoindolin-2-yl)piperidine-2,6-dione] | 40 to 50% |  | B (80%< substrate protein remaining %≤ 100%) | B (80%< substrate protein remaining %≤ 100%) | B (80%< substrate protein remaining %≤ 100%) | A (0% ≤ substrate protein remaining % ≤ 80%) | A (0% ≤ substrate protein remaining % ≤ 80%) | B (80%< substrate protein remaining %≤ 100%) | 50 to 60% |  |  |  |  |  |  |
|  |  |  |  | O=C1CCC(N2Cc3c(CN4CCC(c5ccc(F)cc5)CC4)cccc3C2=S)C(=O)N1 (stereo not shown) [GT-08596, 3-(4-((4-(4-fluorophenyl)piperidin-1-yl)methyl)-1-thioxoisoindolin-2-yl)piperidine-2,6-dione] | 40 to 50% |  | B (80%< substrate protein remaining %≤ 100%) | B (80%< substrate protein remaining %≤ 100%) | B (80%< substrate protein remaining %≤ 100%) | A (0% ≤ substrate protein remaining % ≤ 80%) | A (0% ≤ substrate protein remaining % ≤ 80%) | B (80%< substrate protein remaining %≤ 100%) | 50 to 60% |  |  |  |  |  |  |
| 60 to 80% | 80 to 100% |  |  | O=C1CCC(N2Cc3cc(CN4CCC(C5CCOc6cc(F)ccc65)CC4)ccc3C2=S)C(=O)N1 (stereo not shown) [GT-09274, 3-(5-((4-(7-fluorochroman-4-yl)piperidin-1-yl)methyl)-1-thioxoisoindolin-2-yl)piperidine-2,6-dione] | 30 to 40% |  |  |  |  |  |  |  | 40 to 50% |  |  |  |  |  |  |
| 60 to 80% | 80 to 100% |  |  | O=C1CCC(N2Cc3cc(CN4CCN(c5ncnc6sc(-c7ccccc7)cc56)CC4)ccc3C2=S)C(=O)N1 (stereo not shown) [GT-09296, 3-(5-((4-(6-phenylthieno[2,3-d]pyrimidin-4-yl)piperazin-1-yl)methyl)-1-thioxoisoindolin-2-yl)piperidine-2,6-dione] | 40 to 50% | la7 |  |  |  |  |  |  |  |  |  |  |  |  |  |
| 60 to 80% | 80 to 100% |  |  | O=C1CCC(N2Cc3cc(CN4CCN(c5nc(N6CCNCC6)c6sccc6n5)CC4)ccc3C2=S)C(=O)N1 (stereo not shown) [GT-09365, 3-(5-((4-(4-(piperazin-1-yl)thieno[3,2-d]pyrimidin-2-yl)piperazin-1-yl)methyl)-1-thioxoisoindolin-2-yl)piperidine-2,6-dione] |  |  |  |  |  |  |  |  |  | B (80%< substrate protein remaining %≤ 100%) | A (0% ≤ substrate protein remaining % ≤ 80%) | A (0% ≤ substrate protein remaining % ≤ 80%) | B (80%< substrate protein remaining %≤ 100%) | B (80%< substrate protein remaining %≤ 100%) | A (0% ≤ substrate protein remaining % ≤ 80%) |

| Structure (SMILES) | inhibition at 0.5 µM [7] | inhibition at 2 µM [7] | IC50 [1] | IC50 [7] | inhibition at 0.01 µM [1] | Inhibition Rate at 500 nM (%) [1] | IKZF3 substrate protein remaining % [2, 9] | CK1α substrate protein remaining % [3, 9] | IKZF 1 substrate protein remaining % [4, 9] | IKZF2 substrate protein remaining % [5, 9] | Wee1 substrate protein remaining % [6, 9] | GSPT1 substrate protein remaining % [8, 9] | inhibition at 0.5 µM [1] | IKZF3 substrate protein remaining % [2, 10] | CK1α substrate protein remaining % [3, 10] | IKZF 1 substrate protein remaining % [4, 10] | IKZF2 substrate protein remaining % [5, 10] | Wee1 substrate protein remaining % [6, 10] | GSPT1 substrate protein remaining % [8, 10] |
| --- | --- | --- | --- | --- | --- | --- | --- | --- | --- | --- | --- | --- | --- | --- | --- | --- | --- | --- | --- |
| O=C1CCC(N2Cc3c(CN4CC=C(c5ncc6ccsc6n5)CC4)cccc3C2=S)C(=O)N1 (stereo not shown) [GT-08965, 3-(4-((4-(thieno[2,3-d]pyrimidin-2-yl)-3,6-dihydropyridin-1(2H)-yl)methyl)-1-thioxoisoindolin-2-yl)piperidine-2,6-dione] | 80 to 100% | 80 to 100% |  |  | 30 to 40% |  |  |  |  |  |  |  | 40 to 50% |  |  |  |  |  |  |
